Results published in publication PMC5915154, “Aloe-emodin as drug candidate for cancer therapy” (Oncotarget, 2018).

Tests used:
CCRF-CEM cells [1] = experiment: Alkaline comet assay (DNA damage); format: cell-based, human; conditions: 1-, 2- or 4-fold IC50, 24 h
Method: The OxiSelect™ Comet Assay Kit (Cell Biolabs/Biocat, Heidelberg, Germany) was used to detect DNA damage according to the manufacturer’s instructions. CCRF-CEM cells treated with 1-, 2- and 4-fold IC50 of Aloe-emodin for 24 h. Then, the cells were mixed with agarose and applied to OxiSelect™ Comet Assay slides. These slides including the embedded cells were treated with lysis buffer and alkaline solution. Subsequently, electrophoresis was performed on the slide with a voltage of 22 V for 30 min corresponding to 1 V/cm of the electrophoresis chamber. These slides were washed with distilled water. After fixation with 70% ethanol, the slides were stained with by a fluorescent DNA binding dye.
Then, the slides were photographed by a fluorescence microscope (EVOSs FL Cell Image System, Thermo Fisher Scientific Waltham, USA) using a FITC filter with an excitation wavelength of 490 nm and emission at 520 nm. At least 50 cells per image were randomly selected and analyzed with the OpenComet software (http://www.cometbio.org). Percentages of tail DNA, tail moment and olive moment were assessed as parameters for DNA damage. The statistical significance was determined by one-way ANOVA with Tukey’s multiple comparison test.

CCRF-CEM cells [2] = experiment: Annexin V/PI detection of apoptosis and necrosis; format: cell-based, human
Text: A commercial annexin V/PI detection apoptosis kit was used to detect early apoptosis and necrosis according to the manufacturer’s instructions (Life Technologies, Carlsbad, CA, USA). Annexin V is a calcium-dependent phospholipid-binding protein, which binds to phosphatidylserine (PS). PS is predominantly located at the inner side of the plasma membrane under normal conditions and moves to outer surface of the membrane upon the onset of early apoptosis. This can be detected FITC-labeled annexin V. PI is a marker of late apoptosis and necrosis. We treated aliquots of 1×10^6 CCRF-CEM cells with 0.5-, 1-, 2- and 4-fold IC50 of Aloe-emodin for 48, 72 or 96 h, respectively. After washing the cells with PBS, they were stained with annexin V/FITC at room temperature for 10-15 min. Subsequently, cells were washed again and stained with PI in the dark. Then, the results were analyzed by a BD Accuri™ C6 flow cytometer at excitation wavelength 488 nm and emission wavelength 530 nm to record annexin V/FITC signals. The fluorescence of PI was detected at 488 nm excitation and was measured by a 610/20 nm band pass filter. At least three independent experiments were performed..

[3] = test system: Human peripheral mononuclear cells (PMNC); experiment: Toxicity in normal cells, resazurin assay; format: cell-based; conditions: PMNC of a healthy donor, all concentrations tested 0.001-100 μM
Method: We also investigated Aloe-emodin’s toxicity towards normal cells. Human peripheral mononuclear cells (PMNC) were isolated from fresh blood samples of a healthy donor and tested against various concentrations of Aloe-emodin ranging from 0.001-100 μM.
Normal human peripheral mononuclear cells (PMNC) were isolated from fresh blood samples of a healthy donor using Histopaque® (Sigma-Aldrich). In brief, 6 mL blood were layered with 6 mL Histopaque® and centrifuged (400 × g) for 30 min at 4°C. The opaque interface containing lymphocytes and other mononuclear cells was transferred into a new tube and washed several times. Isolated PMNCs were kept in Panserin 413 medium (PAN-Biotech, Aidenbach, Germany) supplemented with 2 % phytohemagglutinin M (PHA-M, Life Technologies, Darmstadt, Germany).
Resazurin reduction assay was conducted to test the cytotoxicity of the compounds. This assay is based on the reduction of resazurin to resorufin by viable cells. […] After 72 h incubation and addition of resazurin (Sigma-Aldrich) for 4 h, staining was measured by an Infinite M2000 ProTM plate reader (Tecan, Germany) using an excitation wavelength of 544 nm and an emission wavelength of 590 nm. […]

[4] = test system: drug-sensitive wild-type cell lines; experiment: Resazurin reduction assay, range over drug-sensitive wild-type cell lines; format: cell-based; conditions: Homo sapiens
Text: (§1) The cell lines used in the present work, their origins and maintenance conditions were previously reported. In brief, drug-sensitive CCRF-CEM and multidrug resistant P-glycoprotein-over-expressing CEM/ADR5000 leukemia cells, MDA-MB-231-pcDNA3 breast cancer cells and their transfectant subline MDA-MB-231-BCRP clone 23, HCT116 (p53^+/+) colon cancer cells and its knockout clone HCT116 (p53^-/-), U87.MG glioblastoma multiform cells and their transfectant subline U87.MGΔEGFR as well as HEK293 human embryonic kidney cells transfected with or without a cDNA for ABCB5 were used. The human peripheral mononuclear cells (PMNC) were isolated from fresh blood samples of a healthy donor by using Histopaque® (Sigma-Aldrich, Taufkirchen, Germany).
(§2) Resazurin reduction assay was conducted to test the cytotoxicity of the compounds. This assay is based on the reduction of resazurin to resorufin by viable cells. […] Briefly, aliquots of 0.5×10^4 adherent cells which were allowed to attach overnight and 1×10^4 suspension cells per well were seeded in 96-well-plates with or without the addition of varying concentrations of the test substance to get a total volume of 200 μL/well. After 72 h incubation and addition of resazurin (Sigma-Aldrich) for 4 h, staining was measured by an Infinite M2000 ProTM plate reader (Tecan, Germany) using an excitation wavelength of 544 nm and an emission wavelength of 590 nm. […]

[5] = test system: U87.MG glioblastoma cells; experiment: Resazurin reduction assay, U87.MG; format: cell-based; conditions: Homo sapiens, U-87 MG, 72 h
Text: as §1, §2

[6] = test system: MDA-MB-231-BCRP clone 23 cells; experiment: Resazurin reduction assay, MDA-MB-231-BCRP clone 23; format: cell-based; conditions: Homo sapiens; MDA-MB-231-BCRP clone 23, resazurin assay, 72 h
Text: as §1, §2

[7] = test system: MDA-MB-231-pcDNA breast cancer cells; experiment: Resazurin reduction assay, MDA-MB-231-pcDNA; format: cell-based; conditions: Homo sapiens, 72 h
Text: as §1, §2

CCRF-CEM cells [8] = experiment: Protease viability marker assay (GF-AFC); format: cell-based; conditions: Homo sapiens, 72 h
Method: The protease viability marker assay was performed to exclude the possibility that the cytotoxicity of Aloe-emodin measured by the resazurin assay was artificially influenced by any non-intended interaction with Aloe-emodin-induced ROS generation. The assay measures the protease activity within living cells. The protease activity is restricted to intact viable cells and is measured using a flourogenic, cell permeant, peptide substrate (glyxyl-phenylalanyl-aminoflourocoumarin; GF-AFC). The substrate enters intact cells, where it is cleaved by proteases to generate a fluorescent signal proportional to the number of living cells. Briefly, CCRF-CEM cells (2×10^4cells/well) were seeded in 96 well plate. Aloe-emodin was added in a dose dependent manner (0.001 – 100 μM). After 72 h, 100 μL of GF-AFC substrate (Promega, Madison, USA) were added to each well, cells were incubated for 30 min at 37°C. Using Infinite M2000Pro™ plate reader (Tecan, Crailsheim, Germany), the fluorescent intensity was measured at an excitation wavelength 400 nm, and emitted light was collected at 505 nm.

HEK293-ABCB5 cells = experiment: Resazurin reduction assay, HEK293-ABCB5; format: cell-based; conditions: Homo sapiens, 72 h
Text: as §1, §2

IC50 [5]: 21.7 µM
IC50 [6]: 26.9 µM
IC50 [7]: 22.3 µM
IC50 (CCRF-CEM cells [8]): 13.8 µM
SMILES: O=C1c2cccc(O)c2C(=O)c2c(O)cc(CO)cc21 [Aloe-emodin]
DNA damage (comet tails, tail DNA %, tail and olive tail moment) (CCRF-CEM cells [1]): induced DNA damage in a dose-dependent manner
apoptotic or necrotic cell death (CCRF-CEM cells [2]; 2- or 4-fold IC50, 96 h): early and late apoptosis as well as early and late necrosis
apoptotic or necrotic cell death (CCRF-CEM cells [2]; 4-fold IC50, 72 h): early and late apoptosis as well as early and late necrosis
cytotoxic activity towards normal cells [3]: did not show cytotoxic activity
IC50 ([4]; drug-sensitive wild-type cell lines HCT116(p53+/+), U87.MG, MDA-MB-231-pcDNA, HEK293): 16.5 to 22.3 µM
IC50 ([4]; drug-sensitive wild-type cell lines incl. CCRF-CEM (abstract)): 9.87 to 22.3 µM
IC50 (HEK293-ABCB5 cells): 25.9 µM
